Test results from PMC6692071 (Journal of medicinal chemistry, 2018).
Entries after “also recorded” stand apart in the source; their conditions may differ.

Tests used:
[1] = rat PK studies
human δ opioid receptor [2] = target: T1, human δ opioid receptor (Homo sapiens, UniProt P41143); experiment: biochemical
human δ opioid receptor [3] = target: T1, human δ opioid receptor; details: mean ± SEM; cited from earlier work
human κ opioid receptor = human κ opioid receptor (Homo sapiens, UniProt P41145); details: mean ± SEM; cited from earlier work
Sequence of human κ opioid receptor (P41145 whole entry): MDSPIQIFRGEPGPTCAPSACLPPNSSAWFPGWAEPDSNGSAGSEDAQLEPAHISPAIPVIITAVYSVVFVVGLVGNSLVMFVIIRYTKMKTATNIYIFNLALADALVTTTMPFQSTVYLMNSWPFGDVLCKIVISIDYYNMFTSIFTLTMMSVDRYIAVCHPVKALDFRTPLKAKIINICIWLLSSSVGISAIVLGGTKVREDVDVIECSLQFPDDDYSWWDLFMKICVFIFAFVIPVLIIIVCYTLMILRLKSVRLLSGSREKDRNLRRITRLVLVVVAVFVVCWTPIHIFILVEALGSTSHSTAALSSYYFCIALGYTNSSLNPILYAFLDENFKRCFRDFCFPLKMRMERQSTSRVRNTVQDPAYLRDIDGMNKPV

T1 sequence (P41143 whole entry): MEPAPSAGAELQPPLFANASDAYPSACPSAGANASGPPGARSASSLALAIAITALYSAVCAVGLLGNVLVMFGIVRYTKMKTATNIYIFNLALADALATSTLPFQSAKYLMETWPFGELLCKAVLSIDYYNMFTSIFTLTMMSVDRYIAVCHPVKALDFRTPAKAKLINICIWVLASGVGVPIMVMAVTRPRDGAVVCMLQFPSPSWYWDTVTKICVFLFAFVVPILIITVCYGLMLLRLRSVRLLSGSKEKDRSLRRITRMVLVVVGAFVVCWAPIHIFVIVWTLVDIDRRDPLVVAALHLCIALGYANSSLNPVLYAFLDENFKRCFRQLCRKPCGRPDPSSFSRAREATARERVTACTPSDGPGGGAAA

Kb (human δ opioid receptor [2])	SMILES	Ke δ, DPDPE (human δ opioid receptor [3])	further results
–	CC(C)[C@@H](CC1CCCC1)NC(=O)[C@H]1Cc2ccc(O)cc2CN1 [Compound 13, (3R)-N-[(1R)-1-(Cyclopentylmethyl)-2-methylpropyl]-7-hydroxy-1,2,3,4-tetrahydroisoquinoline-3-carboxamide]	–	brain penetration [1]: brain penetration; also recorded: crossed the blood–brain barrier; also recorded: penetrate the brain
> 3 µM	CC(C)[C@H](CC1CCCCC1)NC(=O)[C@@H]1Cc2ccc(O)cc2CN1 [Compound 5, (3S)-N-[(1S)-1-(Cyclohexylmethyl)-2-methylpropyl]-7-hydroxy-1,2,3,4-tetrahydroisoquinoline-3-carboxamide]	–	–
> 3 µM	CC(C)[C@@H](CC1CCCCC1)NC(=O)[C@@H]1Cc2ccc(O)cc2CN1 [Compound 3, (3S)-N-[(1R)-1-(Cyclohexylmethyl)-2-methylpropyl]-7-hy-droxy-1,2,3,4-tetrahydroisoquinoline-3-carboxamide]	–	–
–	CC(C)[C@@H](CN1CCCCC1)NC(=O)[C@H]1Cc2ccc(O)cc2CN1 [Compound 42, (3R)-7-hydroxy-N-[(1S)-2-methyl-1-(piperidin-1-ylmethyl)propyl]-1,2,3,4-tetrahydroisoquinoline-3-carboxamide]	>3000 nM	–
–	CC(C)[C@@H](CC1CCCCC1)NC(=O)[C@H]1Cc2ccc(C(N)=O)cc2CN1 [Compound 9, (3R)-N^3-[(1R)-1-(Cyclohexylmethyl)-2-methylpropyl]-1,2,3,4-tetrahydroisoquinoline-3,7-dicarboxamide]	–	brain penetration [1]: brain penetration
–	CC1CCN(C[C@@H](NC(=O)[C@H]2Cc3ccc(O)cc3CN2)C(C)C)CC1 [4-MePDTic (43)]	>3000 nM	–
> 3 µM	CC(C)[C@H](CC1CCCCC1)NC(=O)[C@H]1Cc2ccc(O)cc2CN1 [Compound 4, (3R)-N-[(1S)-1-(Cyclohexylmethyl)-2-methylpropyl]-7-hydroxy-1,2,3,4-tetrahydroisoquinoline-3-carboxamide]	–	–
–	CC(C)[C@@H](CN1CC[C@@](C)(c2cccc(O)c2)[C@@H](C)C1)NC(=O)[C@H]1Cc2ccc(O)cc2CN1 [JDTic, (3R)-1,2,3,4-tetrahydro-7-hydroxy-N-[(1S)-1-[[(3R,4R)-4-(3-hydroxy-phenyl)-3,4-dimethyl-1-piperidinyl]methyl]-2-methylpropyl]-3-iso-quinolinecarboxamide]	–	Ke κ, U69,593 (human κ opioid receptor): 0.02 ± 0.01 nM
–	CC(C)[C@@H](CC1CCCCC1)NC(=O)[C@H]1Cc2ccc(O)cc2CN1 [Compound 1]	640 ± 170 nM	–
